Data taken from patent publication US20250214986A1, “P2X3 INHIBITOR COMPOUND, SALT THEREOF, POLYMORPH THEREOF AND USE THEREOF” (HUMANWELL HEATHCARE (GROUP) CO., LTD., priority 2022, published 2025).
Structures can show the parent of a compound that is named as a salt.

Columns and labels:
Format in all cases: physicochemical
[1] = Hygroscopicity by dynamic vapor sorption (DVS); conditions: for crystalline form after DVS test: 0% RH to 95% RH to 0% RH; for vapor sorption / hygroscopicity: 25° C./80% RH; for hygroscopicity: DVS
Description: Dynamic vapor sorption (DVS) curves were acquired on a DVS IntrInsic from Surface Measurement Systems (SMS). The relative humidity at 25° C. was corrected with the deliquescence points of LiCl, Mg(NO3)2, and KCl.
Starting at 0% RH, the test acquired the percentage changes in mass of the samples when the humidity changed (0% RH to 95% RH to 0% RH) at a constant temperature of 25° C.

[2] = Solid state stability (XRPD and HPLC); conditions: for change of HPLC purity after placement under the corresponding conditions: 60° C. sealed 1 day, 25° C./60% RH and 40° C./75% RH uncovered 1 week/1 month
Description: In the test, the purity, dynamic solubility and stability were tested using an Agilent 1260 high-performance liquid chromatograph, the molar ratio of salt-forming ions was tested using ion chromatography, and the analytical conditions are shown in Tables A-4 and A-5 below. [table]

[3] = Dynamic solubility experiment at 37° C.
Description: In the test, the purity, dynamic solubility and stability were tested using an Agilent 1260 high-performance liquid chromatograph, the molar ratio of salt-forming ions was tested using ion chromatography, and the analytical conditions are shown in Tables A-4 and A-5 below.
Solids at a feeding concentration of 10 mg/mL (calculated based on free base) were rotationally mixed with corresponding vehicles at 37° C. […] After sampling at each time point, the samples were centrifuged (at 10000 rpm) and filtered (through a 0.45 μm PTFE filter head). The HPLC concentrations and pH values of the filtrates were determined.
100.2 mg of NaCl and 50.3 mg of Triton X-100 were weighed into a 50 mL volumetric flask and then completely dissolved by addition of purified water. 816 μL of 1 M hydrochloric acid was added, and the pH was adjusted to 1.8 with 1 M hydrochloric acid or 1 M NaOH solution. The mixed solution was brought to the volume by addition of purified water.
170.5 mg of anhydrous NaH2PO4, 22.2 mg of NaOH, and 310.9 mg of NaCl were weighed into a 50 mL volumetric flask and then completely dissolved by addition of purified water. The pH was adjusted to 6.5 with 1 M hydrochloric acid or 1 M NaOH solution. The mixed solution was brought to the volume by addition of purified water. Subsequently, 55.1 mg of SIF powder was weighed into a 25 mL volumetric flask and completely dissolved with the above solution, and the mixed solution was brought to the volume.
0.21 mL of glacial acetic acid, 101.6 mg of NaOH, and 295.4 mg of NaCl were added into a 25 mL volumetric flask and then completely dissolved by addition of about 20 mL of purified water. The pH was adjusted to 5.0 with 1 M hydrochloric acid or 1 M NaOH solution. The mixed solution was brought to the volume by addition of purified water, and then 280.8 mg of SIF powder was weighed into the flask and completely dissolved.

[4] = 25° C./60% RH/uncovered, 1 week
[5] = 40° C./75% RH/uncovered, 1 week
[6] = 25° C./60% RH/uncovered, 1 month
[7] = 40° C./75% RH/uncovered, 1 month

Cc1cnc(-c2cc(O[C@@H](C)[C@@H](C)O)cc(C(=O)N[C@H](C)c3cnc(C(F)(F)F)nc3)c2F)s1 [Crystalline form A of hydrochloride]
crystalline form after DVS test ([1]; 25° C.): remained unchanged
vapor sorption [1]: about 0.49%
hygroscopicity [1]: slight hygroscopicity
HPLC Purity (area %) [2, 4]: 99.57 area %
HPLC purity Relative to starting (%) [2, 4]: 99.98%
HPLC Purity (area %) [2, 5]: 99.58 area %
HPLC purity Relative to starting (%) [2, 5]: 99.99%
change of HPLC purity after placement under the corresponding conditions [2]: no significant change
HPLC Purity (area %) ([2]; 60° C./sealed, 1 day): 99.58 area %
HPLC purity Relative to starting (%) ([2]; 60° C./sealed, 1 day): 99.99%
HPLC Purity (area %) ([2]; Starting): 99.59 area %
Crystalline form change ([3]; FaSSIF, 1 h): Yes^a
S: solubility ([3]; FaSSIF, 1 h): 9 µg/mL
pH of filtrate ([3]; FaSSIF, 1 h): 5.2
Crystalline form change ([3]; FaSSIF, 4 h): Yes^a
S: solubility ([3]; FaSSIF, 4 h): 9 µg/mL
pH of filtrate ([3]; FaSSIF, 4 h): 5.2
Crystalline form change ([3]; FaSSIF, 24 h): Yes^a
S: solubility ([3]; FaSSIF, 24 h): 14 µg/mL
pH of filtrate ([3]; FaSSIF, 24 h): 5.2
Crystalline form change ([3]; FeSSIF, 1 h): Yes^a
S: solubility ([3]; FeSSIF, 1 h): 30 µg/mL
pH of filtrate ([3]; FeSSIF, 1 h): 4.9
Crystalline form change ([3]; FeSSIF, 4 h): Yes^a
S: solubility ([3]; FeSSIF, 4 h): 27 µg/mL
pH of filtrate ([3]; FeSSIF, 4 h): 4.9
Crystalline form change ([3]; FeSSIF, 24 h): Yes^a
S: solubility ([3]; FeSSIF, 24 h): 23 µg/mL
pH of filtrate ([3]; FeSSIF, 24 h): 4.9
Crystalline form change ([3]; H2O, 1 h): Yes^a
S: solubility ([3]; H2O, 1 h): 4 µg/mL
pH of filtrate ([3]; H2O, 1 h): 2.1
Crystalline form change ([3]; H2O, 4 h): Yes^a
S: solubility ([3]; H2O, 4 h): 3 µg/mL
pH of filtrate ([3]; H2O, 4 h): 2.1
Crystalline form change ([3]; H2O, 24 h): Yes^a
S: solubility ([3]; H2O, 24 h): 4 µg/mL
pH of filtrate ([3]; H2O, 24 h): 2.1
solubility at 24 h ([3]; SGF, 37 °C, pH 1.8, simulated gastric fluid, thermodynamic from solid, SGF, 24 h, read-out: S: solubility): 11 µg/mL
Crystalline form change ([3]; SGF, 1 h): Yes^a
S: solubility ([3]; SGF, 1 h): 14 µg/mL
pH of filtrate ([3]; SGF, 1 h): 1.6
Crystalline form change ([3]; SGF, 4 h): Yes^a
S: solubility ([3]; SGF, 4 h): 11 µg/mL
pH of filtrate ([3]; SGF, 4 h): 1.6
Crystalline form change ([3]; SGF, 24 h): Yes^a
pH of filtrate ([3]; SGF, 24 h): 1.6

Cc1cnc(-c2cc(O[C@@H](C)[C@@H](C)O)cc(C(=O)N[C@H](C)c3cnc(C(F)(F)F)nc3)c2F)s1 [Crystalline form A of maleate]
crystalline form after DVS test ([1]; 25° C.): remained unchanged
vapor sorption when the humidity was more than 80% RH ([1]; 25° C., more than 80% RH): rapid vapor sorption
vapor sorption [1]: about 0.41%
hygroscopicity [1]: slight hygroscopicity
HPLC Purity (area %) [2, 4]: 99.71 area %
HPLC purity Relative to starting (%) [2, 4]: 100.00%
HPLC Purity (area %) [2, 5]: 99.65 area %
HPLC purity Relative to starting (%) [2, 5]: 99.94%
change of HPLC purity after placement under the corresponding conditions [2]: no significant change
HPLC Purity (area %) ([2]; 60° C./sealed, 1 day): 99.60 area %
HPLC purity Relative to starting (%) ([2]; 60° C./sealed, 1 day): 99.89%
HPLC Purity (area %) ([2]; Starting): 99.71 area %
Crystalline form change ([3]; FaSSIF, 1 h): Yes^a
S: solubility ([3]; FaSSIF, 1 h): 6 µg/mL
pH of filtrate ([3]; FaSSIF, 1 h): 4.9
Crystalline form change ([3]; FaSSIF, 4 h): Yes^a
S: solubility ([3]; FaSSIF, 4 h): 7 µg/mL
pH of filtrate ([3]; FaSSIF, 4 h): 4.7
Crystalline form change ([3]; FaSSIF, 24 h): Yes^a
S: solubility ([3]; FaSSIF, 24 h): 7 µg/mL
pH of filtrate ([3]; FaSSIF, 24 h): 4.5
Crystalline form change ([3]; FeSSIF, 1 h): Yes^a
S: solubility ([3]; FeSSIF, 1 h): 20 µg/mL
pH of filtrate ([3]; FeSSIF, 1 h): 4.9
Crystalline form change ([3]; FeSSIF, 4 h): Yes^a
S: solubility ([3]; FeSSIF, 4 h): 20 µg/mL
pH of filtrate ([3]; FeSSIF, 4 h): 4.9
Crystalline form change ([3]; FeSSIF, 24 h): Yes^a
S: solubility ([3]; FeSSIF, 24 h): 21 µg/mL
pH of filtrate ([3]; FeSSIF, 24 h): 4.9
solubility in H2O compared with the other forms ([3]; H2O): highest solubility in H2O
Crystalline form change ([3]; H2O, 1 h): Yes^a
S: solubility ([3]; H2O, 1 h): 7 µg/mL
pH of filtrate ([3]; H2O, 1 h): 2.3
Crystalline form change ([3]; H2O, 4 h): Yes^a
S: solubility ([3]; H2O, 4 h): 7 µg/mL
pH of filtrate ([3]; H2O, 4 h): 2.3
Crystalline form change ([3]; H2O, 24 h): Yes^a
S: solubility ([3]; H2O, 24 h): 8 µg/mL
pH of filtrate ([3]; H2O, 24 h): 2.2
Crystalline form change ([3]; SGF, 1 h): Yes^a
S: solubility ([3]; SGF, 1 h): 10 µg/mL
pH of filtrate ([3]; SGF, 1 h): 1.7
Crystalline form change ([3]; SGF, 4 h): Yes^a
S: solubility ([3]; SGF, 4 h): 10 µg/mL
pH of filtrate ([3]; SGF, 4 h): 1.7
Crystalline form change ([3]; SGF, 24 h): Yes^a
S: solubility ([3]; SGF, 24 h): 9 µg/mL
pH of filtrate ([3]; SGF, 24 h): 1.7

Cc1cnc(-c2cc(O[C@@H](C)[C@@H](C)O)cc(C(=O)N[C@H](C)c3cnc(C(F)(F)F)nc3)c2F)s1 [Crystalline form A of p-toluenesulfonate]
crystalline form after DVS test ([1]; 25° C.): remained unchanged
vapor sorption [1]: about 0.12%
hygroscopicity [1]: almost no hygroscopicity
HPLC Purity (area %) [2, 6]: 99.92 area %
HPLC purity Relative to starting (%) [2, 6]: 100.00%
HPLC Purity (area %) [2, 4]: 99.92 area %
HPLC purity Relative to starting (%) [2, 4]: 100.00%
HPLC Purity (area %) [2, 7]: 99.92 area %
HPLC purity Relative to starting (%) [2, 7]: 100.00%
HPLC Purity (area %) [2, 5]: 99.92 area %
HPLC purity Relative to starting (%) [2, 5]: 100.00%
change of HPLC purity after placement under the corresponding conditions [2]: no significant change
HPLC Purity (area %) ([2]; 60° C./sealed, 1 day): 99.92 area %
HPLC purity Relative to starting (%) ([2]; 60° C./sealed, 1 day): 100.00%
HPLC Purity (area %) ([2]; Starting): 99.92 area %
Crystalline form change ([3]; FaSSIF, 1 h): Yes^b′ (transformed to free base crystalline form B + additional diffraction peaks)
S: solubility ([3]; FaSSIF, 1 h): 28 µg/mL
pH of filtrate ([3]; FaSSIF, 1 h): 2.6
Crystalline form change ([3]; FaSSIF, 4 h): Yes^a′
S: solubility ([3]; FaSSIF, 4 h): 13 µg/mL
pH of filtrate ([3]; FaSSIF, 4 h): 2.6
Crystalline form change ([3]; FaSSIF, 24 h): Yes^a′
S: solubility ([3]; FaSSIF, 24 h): 6 µg/mL
pH of filtrate ([3]; FaSSIF, 24 h): 2.6
Crystalline form change ([3]; FeSSIF, 1 h): Yes^b′ (transformed to free base crystalline form B + additional diffraction peaks)
S: solubility ([3]; FeSSIF, 1 h): 95 µg/mL
pH of filtrate ([3]; FeSSIF, 1 h): 4.8
Crystalline form change ([3]; FeSSIF, 4 h): Yes^b (transformed to free base crystalline form B)
S: solubility ([3]; FeSSIF, 4 h): 81 µg/mL
pH of filtrate ([3]; FeSSIF, 4 h): 4.8
Crystalline form change ([3]; FeSSIF, 24 h): Yes^a′
S: solubility ([3]; FeSSIF, 24 h): 28 µg/mL
pH of filtrate ([3]; FeSSIF, 24 h): 4.8
Crystalline form change ([3]; H2O, 1 h): Yes^a
S: solubility ([3]; H2O, 1 h): 6 µg/mL
pH of filtrate ([3]; H2O, 1 h): 1.8
Crystalline form change ([3]; H2O, 4 h): Yes^a
S: solubility ([3]; H2O, 4 h): 5 µg/mL
pH of filtrate ([3]; H2O, 4 h): 1.8
Crystalline form change ([3]; H2O, 24 h): Yes^a
S: solubility ([3]; H2O, 24 h): 5 µg/mL
pH of filtrate ([3]; H2O, 24 h): 1.8
Crystalline form change ([3]; SGF, 1 h): Yes^b′ (transformed to free base crystalline form B + additional diffraction peaks)
S: solubility ([3]; SGF, 1 h): 37 µg/mL
pH of filtrate ([3]; SGF, 1 h): 1.5
Crystalline form change ([3]; SGF, 4 h): Yes^a+b′
S: solubility ([3]; SGF, 4 h): 33 µg/mL
pH of filtrate ([3]; SGF, 4 h): 1.5
Crystalline form change ([3]; SGF, 24 h): Yes^a′
S: solubility ([3]; SGF, 24 h): 12 µg/mL
pH of filtrate ([3]; SGF, 24 h): 1.5
1-hour solubility in the three biological vehicles other than H2O compared with the other forms ([3]; SGF, FaSSIF, FeSSIF, 1 h): highest 1-hour solubility
